In patent publication US10793576B2, “Compound used as Bruton's tyrosine kinase inhibitor and preparation method and application thereof” (Chengdu Brilliant Pharmaceutical Co., LTD., priority 2017, dated 2020):

Columns and labels:
[1] = tested on: TMD8 cells; experiment: Cell proliferation inhibition in vitro, TMD8 cells by CCK-8 method; format: cell-based; conditions: Homo sapiens, 72 hours, read-out: Inhibitions of cell activities IC50 (nM) TMD8
Procedure: (§1) Test Example 2: Determination of the Inhibition of Cell Proliferation Inhibitory Activity in
(§2) vitro of compounds using different cell lines
(§3) 2: Preparation of the Compounds:
(§4) The compounds to be tested were diluted with DMSO to prepare a mother liquor at a final concentration of 10 mM for later use.
(§5) 3.1. Test of TMD8 and OCI-ly10 Cells by CCK-8 Method
(§6) Logarithmic growth phase cells were collected, counted and resuspended in complete medium. The cell concentration was adjusted to a suitable concentration (determined according to the cell density optimization test results), and seeded to 96-well plate and 100 μl of the cell suspension was added to each well. The cells were incubated in an incubator at 37° C., 100% relative humidity and 5% C02 for 24 hours.
(§7) The compounds to be tested were diluted with the medium to the set corresponding action concentration, and the cells were added at 25 µl/well. The cells were incubated in an incubator at 37° C., 100% relative humidity and 5% C02 for 72 hours.
(§8) The medium was aspirated and discarded, and a complete medium containing 10% of the test reagent was added and the obtained system was incubated in a 37° C. incubator for 1 hour-4 hours.
(§9) As: OA of the sample (cell+test reagent+test compound)
(§10) Ac: OA of the negative control (cell+test reagent+DMSO)
(§11) Ab: OA of the positive control (medium+test reagent+DMSO)
(§12) IC50 curve fitting was performed using the software Graphpad Prism 5 or XLfit and IC50 values were calculated.

[2] = molecular target: BTK kinase (Homo sapiens (Human), UniProt Q06187); experiment: In vitro assay for the inhibition of BTK kinase activity (Mobility-Shift Assay); format: biochemical
From the text: Mobility-Shift Assay, which is microfluidic chip technology, applies the basic concept of capillary electrophoresis to microfluidic environments. The substrate used for the experiment is a polypeptide with a fluorescent label. Under the action of enzyme in the reaction system, the substrate is transformed into a product, and the charge the substrate carries also changes accordingly. The use of the charge difference between the substrate and the product involved in Mobility-Shift Assay achieves the separating of the two, and they are tested respectively. The test results are expressed by conversion rates.
(3) 100% DMSO was added to the positive control well and the negative control well, respectively;

[3] = tested on: OCI-LY10 cells; experiment: Cell proliferation inhibition in vitro, OCI-ly10 cells by CCK-8 method; format: cell-based; conditions: Homo sapiens, 72 hours, read-out: Inhibitions of cell activities IC50 (nM) OCI-LY10
Procedure: as §1, §2, §3, §4, §5, §6, §7, §8, §9, §10, §11, §12

[4] = tested on: DOHH2 cells; experiment: Cell proliferation inhibition in vitro, DOHH2 cells by CTG assay; format: cell-based; conditions: Homo sapiens, DOHH-2, 72 hours, read-out: Inhibitions of cell activities IC50 (nM) DOHH2
Procedure: as §1, §2, §3, §4
3.2 Test of DOHH2 Cells by CTG Assay
as §6
The compounds to be tested were diluted with the medium to the set corresponding action concentration, and the cells were added at 10 µl/well. The cells were incubated in an incubator set at 37° C., 100% relative humidity and 5% C02 for 72 hours.
The medium was aspirated and discarded, and 30 μl of test reagent was added. The plate was gentle shaken away from the light to lyse the cells.
as §9, §10, §11, §12

Chain of BTK kinase (Q06187 whole entry): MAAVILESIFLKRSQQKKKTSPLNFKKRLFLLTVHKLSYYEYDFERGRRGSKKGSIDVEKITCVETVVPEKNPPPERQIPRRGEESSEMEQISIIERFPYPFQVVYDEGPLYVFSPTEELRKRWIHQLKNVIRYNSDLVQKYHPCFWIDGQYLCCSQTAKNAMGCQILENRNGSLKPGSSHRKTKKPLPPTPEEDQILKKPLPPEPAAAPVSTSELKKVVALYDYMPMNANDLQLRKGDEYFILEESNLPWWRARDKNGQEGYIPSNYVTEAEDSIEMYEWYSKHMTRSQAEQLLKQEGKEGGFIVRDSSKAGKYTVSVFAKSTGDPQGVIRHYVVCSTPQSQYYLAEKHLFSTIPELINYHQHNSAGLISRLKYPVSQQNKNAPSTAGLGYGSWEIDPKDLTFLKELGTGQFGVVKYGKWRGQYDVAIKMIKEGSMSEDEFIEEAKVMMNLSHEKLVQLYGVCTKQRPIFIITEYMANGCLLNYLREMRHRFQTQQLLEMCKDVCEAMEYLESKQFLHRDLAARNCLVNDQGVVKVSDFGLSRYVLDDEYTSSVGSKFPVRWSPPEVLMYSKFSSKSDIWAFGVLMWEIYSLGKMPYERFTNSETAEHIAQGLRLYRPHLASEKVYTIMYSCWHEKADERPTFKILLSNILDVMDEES

| SMILES | IC50 [1] [nM] | IC50 [2] [nM] | IC50 [3] [nM] | IC50 [4] [nM] |
| --- | --- | --- | --- | --- |
| CC#CC(=O)N1C2CN[C@@H](C2)C1c1nc(-c2ccc(C(=O)Nc3cc(C(F)(F)F)ccn3)cc2)c2c(N)nccn12 (some centres unmarked) [Example 53] | 0.75 | 1.8 | 1.3 | 166 |
| C=CC(=O)N1C2C[C@@H](C1c1nc(-c3ccc(C(=O)Nc4cc(C(F)(F)F)ccn4)cc3)c3c(N)nccn13)N(C)C2 (some centres unmarked) [Example 54] | 0.15 | 1.5 | 0.64 | 143 |
| C=CC(=O)N1C2C[C@@H](C1c1nc(-c3ccc(C(=O)Nc4cc(C(F)(F)F)ccn4)cc3)c3c(N)nccn13)N(C(C)C)C2 (some centres unmarked) [Example 55] | 0.48 | 2.3 | 1.87 | 97 |
| C=CC(=O)N1C2C[C@@H](C1c1nc(-c3ccc(C(=O)Nc4cc(C(F)(F)F)ccn4)cc3)c3c(N)nccn13)N(C(C)=O)C2 (some centres unmarked) [Example 56] | 5.9 | 4.3 | 3.4 | 74 |
| C=CC(=O)N1C2CC[C@@H](C2)C1c1nc(-c2ccc(C(=O)Nc3cc(C)ccn3)cc2)c2c(N)nccn12 (some centres unmarked) [Example 62] | 2.8 | 13 | 3.9 | 179 |
| C=CC(=O)N1CC2CCCC2C1c1nc(-c2ccc(C(=O)Nc3cc(Cl)ccn3)cc2)c2c(N)nccn12 (centres unmarked) [Example 68] | 3.2 | 5.3 | 4.4 | 172 |
| C=CC(=O)N1C[C@H]2[C@@H]([C@H]1c1nc(-c3ccc(C(=O)Nc4cc(Cl)ccn4)cc3)c3c(N)nccn13)C2(C)C [Example 69] | 0.62 | 1.4 | 0.74 | 124 |
| C=CC(=O)N1C2CC[C@@H](C2)C1c1nc(-c2ccc(C(=O)Nc3cc(Cl)ccn3)cc2)c2c(N)nccn12 (some centres unmarked) [Example 70] | 6.8 | 2.4 | 3.2 | 677 |
| C=CC(=O)N1C(c2nc(-c3ccc(C(=O)Nc4cc(Cl)ccn4)cc3)c3c(N)nccn23)CC2CC21 (centres unmarked) [Example 71] | 8.4 | 12 | 1.4 | 84 |
| CC#CC(=O)N1CC2(CC2)C[C@H]1c1nc(-c2ccc(C(C)(O)c3ccccc3)cc2)c2c(N)nccn12 (stereo partly drawn) [Example 73, 1-((6S)-6-(8-amino-1-(4-(1-hydroxy-1-phenylethyl)phenyl)imidazo[1,5-a]pyrazin-3-yl)-5-azaspiro[2.4]heptan-5-yl)but-2-yn-1-one] | 42.3 | 18 | 1.4 | 124 |
| C=CC(=O)N1CC2(CC2)C[C@H]1c1nc(-c2ccc(C(C)(O)c3ccccc3)cc2)c2c(N)nccn12 (stereo partly drawn) [Example 74, 1-((6S)-6-(8-amino-1-(4-(1-hydroxy-1-phenylethyl)phenyl)imidazo[1,5-a]pyrazin-3-yl)-5-azaspiro[2.4]heptan-5-yl)prop-2-en-1-one] | 9.7 | 24 | 3.5 | 72 |
| C=CC(=O)N1CC2CCCC2C1c1nc(-c2ccc(C(C)(O)c3ccccc3)cc2)c2c(N)nccn12 (centres unmarked) [Example 77] | 2.5 | 8.5 | 0.26 | 212 |
| CC#CC(=O)N1C2CC[C@@H](C2)C1c1nc(-c2ccc(C(C)(O)c3ccccc3)cc2)c2c(N)nccn12 (some centres unmarked) [Example 80] | 4.3 | 24 | 0.67 | 618 |
| C=CC(=O)N1C2CCC1(c1nc(-c3ccc(C(C)(O)c4ccccc4)cc3)c3c(N)nccn13)COC2 (centres unmarked) [Example 84] | 6.8 | 16.3 | 4.2 | 48 |
| CC#CC(=O)N1C2CCC1(c1nc(-c3ccc(C(C)(O)c4ccccc4)cc3)c3c(N)nccn13)COC2 (centres unmarked) [Example 85] | 18.2 | 9.4 | 0.97 | 96 |
| C=CC(=O)N1C2C[C@@H](C1c1nc(-c3ccc(C(C)(O)c4ccccc4)cc3)c3c(N)nccn13)N(C(C)C)C2 (some centres unmarked) [Example 89] | 2.4 | 14 | 0.23 | 96 |

| SMILES | IC50 [1] [nM] | IC50 [2] [nM] | IC50 [3] [nM] | IC50 [4] [nM] |
| --- | --- | --- | --- | --- |
| CC#CC(=O)N1C2C[C@@H](C1c1nc(-c3ccc(C(C)(O)c4ccccc4)cc3)c3c(N)nccn13)N(C(C)C)C2 (some centres unmarked) [Example 91] | 1.4 | 21 | 0.41 | > 1000 |
| CC#CC(=O)N1CC2(CC2)C[C@H]1c1nc(-c2ccc(Oc3ccccc3)cc2)c2c(N)nccn12 [Example 92, (S)-1-(6-(8-amino-1-(4-phenoxyphenyl)imidazo[1,5-a]pyrazin-3-yl)-5-azaspiro[2.4]heptan-5-yl) but-2-yn-1-one] | 7.6 | 4.3 | 0.31 | 712 |
| C=CC(=O)N1CC2(CC2)C[C@H]1c1nc(-c2ccc(Oc3ccccc3)cc2)c2c(N)nccn12 [Example 93, (S)-1-(6-(8-amino-1-(4-phenoxyphenyl)imidazo[1,5-a]pyrazin-3-yl)-5-azaspiro[2.4]heptan-5-yl)prop-2-en-1-one] | 0.65 | 3.6 | 0.53 | 318 |
| CC#CC(=O)N1CC2CCCC2C1c1nc(-c2ccc(Oc3ccccc3)cc2)c2c(N)nccn12 (centres unmarked) [Example 97] | 6.2 | 2.8 | 0.4 | > 1000 |
| C=CC(=O)N1C2CC[C@@H](C2)C1c1nc(-c2ccc(Oc3ccccc3)cc2)c2c(N)nccn12 (some centres unmarked) [Example 98] | 6.8 | 24 | 0.33 | > 1000 |
| CC#CC(=O)N1C2CC[C@@H](C2)C1c1nc(-c2ccc(Oc3ccccc3)cc2)c2c(N)nccn12 (some centres unmarked) [Example 99] | 5.4 | 39 | 2.7 | > 1000 |
| C=CC(=O)N1C2CCC1(c1nc(-c3ccc(Oc4ccccc4)cc3)c3c(N)nccn13)COC2 (centres unmarked) [Example 104] | 3.6 | 4.6 | 0.42 | 718 |
| CC#CC(=O)N1C2CCC1(c1nc(-c3ccc(Oc4ccccc4)cc3)c3c(N)nccn13)COC2 (centres unmarked) [Example 105] | 8.4 | 18 | 0.41 | 916 |
| C=CC(=O)N1C2CN[C@@H](C2)C1c1nc(-c2ccc(Oc3ccccc3)cc2)c2c(N)nccn12 (some centres unmarked) [Example 106] | 21.4 | 47 | 0.78 | > 1000 |
| CC#CC(=O)N1C2CN[C@@H](C2)C1c1nc(-c2ccc(Oc3ccccc3)cc2)c2c(N)nccn12 (some centres unmarked) [Example 107] | 12.3 | 41 | 0.81 | 986 |
| C=CC(=O)N1C2C[C@@H](C1c1nc(-c3ccc(Oc4ccccc4)cc3)c3c(N)nccn13)N(C)C2 (some centres unmarked) [Example 108] | 14.3 | 72 | 2.7 | > 1000 |
| C=CC(=O)N1C2C[C@@H](C1c1nc(-c3ccc(Oc4ccccc4)cc3)c3c(N)nccn13)N(C(C)C)C2 (some centres unmarked) [Example 109] | 7.2 | 19 | 0.31 | 184 |
| C=CC(=O)N1C2C[C@@H](C1c1nc(-c3ccc(Oc4ccccc4)cc3)c3c(N)nccn13)N(C(C)=O)C2 (some centres unmarked) [Example 110] | 1.2 | 36 | 0.21 | 198 |
| CC#CC(=O)N1C2C[C@@H](C1c1nc(-c3ccc(Oc4ccccc4)cc3)c3c(N)nccn13)N(C(C)C)C2 (some centres unmarked) [Example 111] | 4.3 | 30 | 2.1 | 672 |
| CN(C)C/C=C/C(=O)N1CC2(CC2)C[C@H]1c1nc(-c2ccc(C(=O)Nc3ccccn3)cc2)c2c(N)nccn12 [Example 112, (S,E)-4-(8-amino-3-(5-(4-(dimethylamino)but-2-enoyl)-5-azaspiro[2.4]heptan-6-yl)imidazo[1,5-a]pyrazin-1-yl)-N-(pyridin-2-yl)benzamide] | 0.31 | 21 | 0.41 | 902 |
| CN(C)C/C=C/C(=O)N1CC2CCCC2[C@H]1c1nc(-c2ccc(C(=O)Nc3ccccn3)cc2)c2c(N)nccn12 (stereo partly drawn) [Example 113, 4-(8-amino-3-((1S)-2-((E)-4-(dimethylamino)-2-butenoyl)octahydrocyclopenta [c]pyrrol-1-yl)imidazo[1,5-a]pyrazin-1-yl)-N-(pyridin-2-yl)benzamide] | 12.5 | 4.6 | 7.4 | > 1000 |
